Test results as given in ChEMBL document CHEMBL1132828, “Pharmacophore identification of a specific CXCR4 inhibitor, T140, leads to development of effective anti-HIV agents with very high selectivity indexes” (Bioorg Med Chem Lett, 2000).
Where a SMILES comes first, the peptide text is derived from it. Bridges are numbered along the chain shown (N, C = ends). [ ]: non-standard residue; d: D form. 2Nal = N[C@@H](Cc1ccc2ccccc2c1)C(=O)O; Cit = NC(=O)NCCC[C@H](N)C(=O)O

Experiments:
[1] = Ratio of cytotoxic concentration (CC50) in test-I to that of EC50 of compound; Not tested; format: functional
[2] = tested on: MT4; assay: Compound was tested for reduction of the viability of mock infected MT-4 cell in test-I; format: functional; conditions: Homo sapiens
[3] = Ratio of cytotoxic concentration (CC50) in test-II to that of EC50 of compound; format: functional, Homo sapiens
[4] = Ratio of cytotoxic concentration (CC50) in test-I to that of EC50 of compound; format: functional, Homo sapiens
[5] = tested on: MT4; assay: Compound was tested for reduction of the viability of mock infected MT-4 cell in test-II; format: functional; conditions: Homo sapiens
[6] = tested on: Human immunodeficiency virus 1; assay: Inhibition of HIV-induced cytopathogenicity in MT-4 cell (ZIDOVUDINE control); format: functional, organism-based; conditions: Human immunodeficiency virus 1, MT4

Row | SMILES | Ratio [1] | CC50 [2] | Ratio [3] | Ratio [4] | CC50 [5] | EC50 [6]
1 | C[C@@H]1NC(=O)[C@H](Cc2ccc(O)cc2)NC(=O)[C@@H](NC(=O)[C@H](Cc2ccc3ccccc3c2)NC(=O)[C@H](CCCN=C(N)N)NC(=O)[C@@H](N)CCCN=C(N)N)CSSC[C@@H](C(=O)N[C@@H](CCCN=C(N)N)C(=O)O)NC(=O)[C@H](CCCNC(N)=O)NC(=O)[C@H](CCCN=C(N)N)NC(=O)[C@H](Cc2ccc(O)cc2)NC(=O)[C@@H]2CCCN2C(=O)[C@@H](CCCCN)NC(=O)[C@H](CCCCN)NC1=O | >4500 | > 40 µM | – | – | – | –
2 | NCCCC[C@@H]1NC(=O)[C@H](CCCN=C(N)N)NC(=O)[C@H](Cc2ccc(O)cc2)NC(=O)[C@@H](NC(=O)[C@H](Cc2ccc3ccccc3c2)NC(=O)[C@H](CCCN=C(N)N)NC(=O)[C@@H](N)CCCN=C(N)N)CSSC[C@@H](C(=O)N[C@@H](CCCN=C(N)N)C(=O)O)NC(=O)[C@H](CCCNC(N)=O)NC(=O)[C@H](CCCN=C(N)N)NC(=O)[C@H](Cc2ccc(O)cc2)NC(=O)[C@@H]2CCCN2C(=O)[C@@H](CCCCN)NC1=O (H-RR[2Nal]CYRK[dK]PYR[Cit]CR-OH; disulfide 4-13) | – | > 1 µM | 29000 | >>300 | 96 µM | –
3 | Cc1cn([C@H]2C[C@H](N=[N+]=[N-])[C@@H](CO)O2)c(=O)[nH]c1=O [ZIDOVUDINE] | – | 190 µM | <410 | 4000 | < 20 µM | 0.048 µM
